US5556744A, “Methods and compositions for diagnosing and treating certain HIV infected patients” (The Trustees of the University of Pennsylvania, priority 1994, dated 1996)

Tested on: maternal HIV+ sera (antibodies)
Assay: RIA / ELISA binding of maternal HIV+ sera to gp120 and gp41 peptides (Example 3)
Parameters: species or system human
How it was run: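 Maternal sera, diluted 1:50 and 1:500, were bound overnight at 4°C to peptides immobilized at 10 μg/ml (pH 9.6 carbonate) and blocked with 1% BSA. Read-out was ¹²⁵I-labelled anti-human IgG counts or HRP-TMB OD450. Signal with peptide minus without was expressed relative to seronegative serum.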

[1] = Serum No. 1, Non-Transmission Group
[2] = Serum No. 2, Non-Transmission Group
[3] = Serum No. 3, Non-Transmission Group
[4] = Serum No. 4, Transmission Group
[5] = Serum No. 5, Transmission Group
[6] = Serum No. 6, Non-Transmission Group
[7] = Serum No. 7, Non-Transmission Group
[8] = Serum No. 8, Non-Transmission Group
[9] = Serum No. 9, Non-Transmission Group
[10] = Serum No. 10, Transmission Group
[11] = Serum No. 11, Non-Transmission Group
[12] = Serum No. 12, Non-Transmission Group
[13] = Serum No. 13, Transmission Group
[14] = Serum No. 14, Transmission Group
[15] = Serum No. 15, Transmission Group
[16] = Serum No. 16, Non-Transmission Group
[17] = Serum No. 17, Non-Transmission Group
[18] = Serum No. 18, Non-Transmission Group
[19] = Serum No. 19, Transmission Group
[20] = Serum No. 20, Non-Transmission Group

Row | Sequence | Binding of maternal HIV+ serum to peptide (sera/NHS ratio) [1] | Binding of maternal HIV+ serum to peptide (sera/NHS ratio) [2] | Binding of maternal HIV+ serum to peptide (sera/NHS ratio) [3] | Binding of maternal HIV+ serum to peptide (sera/NHS ratio) [4] | Binding of maternal HIV+ serum to peptide (sera/NHS ratio) [5] | Binding of maternal HIV+ serum to peptide (sera/NHS ratio) [6] | Binding of maternal HIV+ serum to peptide (sera/NHS ratio) [7] | Binding of maternal HIV+ serum to peptide (sera/NHS ratio) [8] | Binding of maternal HIV+ serum to peptide (sera/NHS ratio) [9] | Binding of maternal HIV+ serum to peptide (sera/NHS ratio) [10] | Binding of maternal HIV+ serum to peptide (sera/NHS ratio) [11] | Binding of maternal HIV+ serum to peptide (sera/NHS ratio) [12] | Binding of maternal HIV+ serum to peptide (sera/NHS ratio) [13] | Binding of maternal HIV+ serum to peptide (sera/NHS ratio) [14] | Binding of maternal HIV+ serum to peptide (sera/NHS ratio) [15] | Binding of maternal HIV+ serum to peptide (sera/NHS ratio) [16] | Binding of maternal HIV+ serum to peptide (sera/NHS ratio) [17] | Binding of maternal HIV+ serum to peptide (sera/NHS ratio) [18] | Binding of maternal HIV+ serum to peptide (sera/NHS ratio) [19] | Binding of maternal HIV+ serum to peptide (sera/NHS ratio) [20] | further results
1 | VTRIVELLGRRGWEALKYWW [Peptide 57] | - (specific OD450 or cpm of sera sample binding to peptide divided by the specific OD450 or cpm of NHS sample binding to peptide, which value is less than 2) | - (specific OD450 or cpm of sera sample binding to peptide divided by the specific OD450 or cpm of NHS sample binding to peptide, which value is less than 2) | - (specific OD450 or cpm of sera sample binding to peptide divided by the specific OD450 or cpm of NHS sample binding to peptide, which value is less than 2) | - (specific OD450 or cpm of sera sample binding to peptide divided by the specific OD450 or cpm of NHS sample binding to peptide, which value is less than 2) | - (specific OD450 or cpm of sera sample binding to peptide divided by the specific OD450 or cpm of NHS sample binding to peptide, which value is less than 2) | - (specific OD450 or cpm of sera sample binding to peptide divided by the specific OD450 or cpm of NHS sample binding to peptide, which value is less than 2) | - (specific OD450 or cpm of sera sample binding to peptide divided by the specific OD450 or cpm of NHS sample binding to peptide, which value is less than 2) | ++ (which value is greater than 3) | - (specific OD450 or cpm of sera sample binding to peptide divided by the specific OD450 or cpm of NHS sample binding to peptide, which value is less than 2) | - (specific OD450 or cpm of sera sample binding to peptide divided by the specific OD450 or cpm of NHS sample binding to peptide, which value is less than 2) | - (specific OD450 or cpm of sera sample binding to peptide divided by the specific OD450 or cpm of NHS sample binding to peptide, which value is less than 2) | - (specific OD450 or cpm of sera sample binding to peptide divided by the specific OD450 or cpm of NHS sample binding to peptide, which value is less than 2) | - (specific OD450 or cpm of sera sample binding to peptide divided by the specific OD450 or cpm of NHS sample binding to peptide, which value is less than 2) | - (specific OD450 or cpm of sera sample binding to peptide divided by the specific OD450 or cpm of NHS sample binding to peptide, which value is less than 2) | - (specific OD450 or cpm of sera sample binding to peptide divided by the specific OD450 or cpm of NHS sample binding to peptide, which value is less than 2) | - (specific OD450 or cpm of sera sample binding to peptide divided by the specific OD450 or cpm of NHS sample binding to peptide, which value is less than 2) | - (specific OD450 or cpm of sera sample binding to peptide divided by the specific OD450 or cpm of NHS sample binding to peptide, which value is less than 2) | - (specific OD450 or cpm of sera sample binding to peptide divided by the specific OD450 or cpm of NHS sample binding to peptide, which value is less than 2) | - (specific OD450 or cpm of sera sample binding to peptide divided by the specific OD450 or cpm of NHS sample binding to peptide, which value is less than 2) | + (which value is between 2 to 3) | –
2 | YDTEVHNVWATHACV [Peptide 94] | ++ (which value is greater than 3) | - (specific OD450 or cpm of sera sample binding to peptide divided by the specific OD450 or cpm of NHS sample binding to peptide, which value is less than 2) | ++ (which value is greater than 3) | - (specific OD450 or cpm of sera sample binding to peptide divided by the specific OD450 or cpm of NHS sample binding to peptide, which value is less than 2) | - (specific OD450 or cpm of sera sample binding to peptide divided by the specific OD450 or cpm of NHS sample binding to peptide, which value is less than 2) | - (specific OD450 or cpm of sera sample binding to peptide divided by the specific OD450 or cpm of NHS sample binding to peptide, which value is less than 2) | - (specific OD450 or cpm of sera sample binding to peptide divided by the specific OD450 or cpm of NHS sample binding to peptide, which value is less than 2) | - (specific OD450 or cpm of sera sample binding to peptide divided by the specific OD450 or cpm of NHS sample binding to peptide, which value is less than 2) | - (specific OD450 or cpm of sera sample binding to peptide divided by the specific OD450 or cpm of NHS sample binding to peptide, which value is less than 2) | - (specific OD450 or cpm of sera sample binding to peptide divided by the specific OD450 or cpm of NHS sample binding to peptide, which value is less than 2) | - (specific OD450 or cpm of sera sample binding to peptide divided by the specific OD450 or cpm of NHS sample binding to peptide, which value is less than 2) | - (specific OD450 or cpm of sera sample binding to peptide divided by the specific OD450 or cpm of NHS sample binding to peptide, which value is less than 2) | - (specific OD450 or cpm of sera sample binding to peptide divided by the specific OD450 or cpm of NHS sample binding to peptide, which value is less than 2) | - (specific OD450 or cpm of sera sample binding to peptide divided by the specific OD450 or cpm of NHS sample binding to peptide, which value is less than 2) | - (specific OD450 or cpm of sera sample binding to peptide divided by the specific OD450 or cpm of NHS sample binding to peptide, which value is less than 2) | - (specific OD450 or cpm of sera sample binding to peptide divided by the specific OD450 or cpm of NHS sample binding to peptide, which value is less than 2) | - (specific OD450 or cpm of sera sample binding to peptide divided by the specific OD450 or cpm of NHS sample binding to peptide, which value is less than 2) | - (specific OD450 or cpm of sera sample binding to peptide divided by the specific OD450 or cpm of NHS sample binding to peptide, which value is less than 2) | - (specific OD450 or cpm of sera sample binding to peptide divided by the specific OD450 or cpm of NHS sample binding to peptide, which value is less than 2) | - (specific OD450 or cpm of sera sample binding to peptide divided by the specific OD450 or cpm of NHS sample binding to peptide, which value is less than 2) | Number of maternal sera binding to peptide (20 maternal sera): two; Binding of maternal sera to peptide (in words) (Example 3): Several maternal serum samples had reactivity; Number of binding maternal sera from the transmission group (vertical transmission group (7 sera)): neither
